Test results reported in patent publication US20130245081A1, “Compositions and Methods for Treating Amyotrophic Lateral Sclerosis” (priority 2009, published 2013).
Where “and” joins values, the source holds several entries; their conditions need not be identical. Equal entries are not always repeated. Where two headings read alike, the source gives them in different places.

What was measured:
[1] = test system: patients with ALS
[2] = test system: healthy adult subjects
Protocol: In both studies, safety was assessed by periodic measurement of vital signs, 12-lead ECGs, physical examinations, clinical laboratory parameters, and reports of adverse events. Baseline vital signs and changes from baseline were summarized with descriptive statistics by body position (supine or standing), dose level, and time point. Additionally, the number of subjects with substantial increases or decreases in blood pressure (>20 mmHg) and heart rate (>15 bpm) were tabulated by dose level and visit. The arithmetic mean of 3 readings of blood pressure and heart rate at each visit/position was used for the analysis. The shift from baseline for physical examination results was tabulated by body system, visit, and dose level. The overall ECG findings were summarized using a shift table comparing post-baseline visits to baseline. Laboratory parameters were summarized at each timepoint, including changes from baseline by dose level. In addition, abnormal values outside normal ranges were flagged. All safety data were summarized with descriptive statistics by dose group.
In the first study, subjects remained in the clinic for 72 hours after dosing, during which time they were monitored for safety and tolerability, and later returned to the clinic for a brief follow-up visit 7 days post-dose for clinical and laboratory assessments. In the second study, end-of-treatment evaluations were performed on Day 9, approximately 48 hours after the final dose, and subjects were discharged from the clinic for an outpatient visit on Day 10 and a follow-up visit on Day 14.

[3] = test system: patients with ALS; remark: listed apart in the source
[4] = combined active treatment groups, Part 1

CCCN[C@@H]1CCc2nc(N)sc2C1 [dexpramipexole, (6R)-2-amino-4,5,6,7-tetrahydro-6-(propylamino)benzothiazole]
Zero Imputation Slope Estimate, Gross, % reduction ([1]; 300 mg vs 50 mg): 13.33% | Zero Imputation Slope Estimate, Resp, % reduction ([1]; 300 mg vs 50 mg): 55.65% | reduction in decline of ALSFRS-R slope, zero imputation ([1]; 300 mg vs 50 mg): 42% | smaller decline in ALSFRS-R scores (repeated measures model) ([1]; 300 mg vs 50 mg, Week 28): 19.7% | McGill SIS, Mean (SE) ([1]; 300 mg, Endpoint of Part 2): 6.1 (0.35) | McGill SIS, Mean Δ (SE) from baseline ([1]; 300 mg, Endpoint of Part 2): −0.8 (0.30) | McGill SIS, Median Δ ([1]; 300 mg, Endpoint of Part 2): −1.0 | Upright Vital Capacity, Mean (SE) ([1]; 300 mg, Endpoint of Part 2): 61.1 (3.94) % predicted | Upright Vital Capacity, Mean Δ (SE) from baseline of Part 2 ([1]; 300 mg, Endpoint of Part 2): −20.3 (2.88) % predicted | Upright Vital Capacity, Median Δ ([1]; 300 mg, Endpoint of Part 2): −14.3 % predicted | McGill SIS, Mean (SE) ([1]; 300 mg, Week 8): 6.9 (0.32) | McGill SIS, Median Δ ([1]; 300 mg, Week 8): 0.0 | Upright Vital Capacity, Mean (SE) ([1]; 300 mg, Week 8): 80.3 (3.20) % predicted | Upright Vital Capacity, Mean Δ (SE) from baseline of Part 2 ([1]; 300 mg, Week 8): −1.4 (0.91) % predicted | Upright Vital Capacity, Median Δ ([1]; 300 mg, Week 8): −0.8 % predicted | McGill SIS, Mean (SE) ([1]; 300 mg, Week 12): 6.5 (0.37) | McGill SIS, Mean Δ (SE) from baseline ([1]; 300 mg, Week 12): −0.4 (0.25) | McGill SIS, Median Δ ([1]; 300 mg, Week 12): 0.0 | Upright Vital Capacity, Mean (SE) ([1]; 300 mg, Week 12): 78.5 (3.34) % predicted | Upright Vital Capacity, Mean Δ (SE) from baseline of Part 2 ([1]; 300 mg, Week 12): −4.2 (1.91) % predicted | Upright Vital Capacity, Median Δ ([1]; 300 mg, Week 12): −4.3 % predicted | McGill SIS, Mean (SE) ([1]; 300 mg, Week 16): 6.4 (0.33) | McGill SIS, Mean Δ (SE) from baseline ([1]; 300 mg, Week 16): −0.4 (0.23) | McGill SIS, Median Δ ([1]; 300 mg, Week 16): 0.0 | McGill SIS, Mean (SE) ([1]; 300 mg, Week 20): 6.4 (0.34) | McGill SIS, Mean Δ (SE) from baseline ([1]; 300 mg, Week 20): −0.5 (0.30) | McGill SIS, Median Δ ([1]; 300 mg, Week 20): 0.0 | Upright Vital Capacity, Mean (SE) ([1]; 300 mg, Week 20): 70.8 (3.77) % predicted | Upright Vital Capacity, Mean Δ (SE) from baseline of Part 2 ([1]; 300 mg, Week 20): −10.6 (1.58) % predicted | Upright Vital Capacity, Median Δ ([1]; 300 mg, Week 20): −9.0 % predicted | McGill SIS, Mean (SE) ([1]; 300 mg, Week 24): 6.3 (0.36) | McGill SIS, Mean Δ (SE) from baseline ([1]; 300 mg, Week 24): −0.7 (0.30) | McGill SIS, Median Δ ([1]; 300 mg, Week 24): 0.0 | McGill SIS, Mean (SE) ([1]; 300 mg, Week 28): 6.0 (0.38) | McGill SIS, Mean Δ (SE) from baseline ([1]; 300 mg, Week 28): −0.9 (0.31) | McGill SIS, Median Δ ([1]; 300 mg, Week 28): −1.0 | Upright Vital Capacity, Mean (SE) ([1]; 300 mg, Week 28): 67.3 (4.44) % predicted | Upright Vital Capacity, Mean Δ (SE) from baseline of Part 2 ([1]; 300 mg, Week 28): −15.1 % predicted and −15.1 (2.63) % predicted | Upright Vital Capacity, Median Δ ([1]; 300 mg, Week 28): −11.5 % predicted | decline in ALSFRS-R scores (repeated measures mixed effect model) ([1]; 300 mg, Week 28): −5.66 | subjects who died (incl. after discontinuation) ([1]; 300 mg, double-blind period through Week 28): 3 (7%) N (%) and 3 N (%) | total number of deaths ([1]; 300 mg, first 24-week randomized active treatment period): 2 | did not require tracheostomy and did not die ([1]; 300 mg, through Week 28): 93% | mean change from baseline in ALSFRS-R total score ([1]; 300 mg, through Week 28): −6.2 | slope estimate of ALSFRS-R scores (linear mixed effects model) ([1]; 300 mg, through Week 28): −1.021 | slope of ALSFRS-R total scores, zero imputed for first post-death visit ([1]; 300 mg, through Week 28): −1.19 | slope of upright vital capacity (linear mixed effects, unadjusted) ([1]; 300 mg, through Week 28): −3.067 | subjects with feeding tubes placed ([1]; 300 mg, through Week 28): 6 (14%) N (%) | drug effect on vital signs, physical examinations, ECG, hematology and urinalysis ([2]; either study): no evidence | serious adverse events or adverse events that led to early discontinuation ([2]; either study): No serious adverse events | subjects reporting dizziness ([2]; first study): 3 subjects | subjects reporting headache ([2]; second study): 5 subjects | safety and tolerability ([2]; single doses up to 300 mg, multiple doses up to 150 mg twice daily for 4½ days): safe and well tolerated | Total AE's ([3]; 50 mg, 12 weeks): 19 (82.6%) N (%) | percentage of subjects reporting AEs ([3]; 50 mg, Part 1): 83% | subjects reporting SAEs ([3]; 50 mg, Part 1): 2 subjects | subjects with at least 1 AE possibly or probably treatment-related ([3]; 50 mg, Part 1): 17% | Total AE's ([3]; 150 mg, 12 weeks): 25 (96.2%) N (%) | Total AE's ([3]; 300 mg, 12 weeks): 23 (88.5%) N (%) | percentage of subjects reporting AEs ([3]; 300 mg, Part 1): 89% | subjects discontinued due to adverse event (nausea) ([3]; 300 mg, Part 1): 1 subjects | subjects reporting SAEs ([3]; 300 mg, Part 1): 3 subjects | subjects with at least 1 AE possibly or probably treatment-related ([3]; 300 mg, Part 1): 27% | deaths during Part 1 ([3]; 50, 150, 300 mg, 12 weeks): No deaths | AE fall [3, 4]: 32% | AE headache [3, 4]: 13% | AE muscular weakness [3, 4]: 24% | AE nausea [3, 4]: 11% | AE post lumber puncture syndrome [3, 4]: 19% | safety and tolerability ([3]; total daily doses of 50, 150, 300 mg, 12 weeks): safe and well-tolerated
